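Method: 48-hour compound exposure of cells in 96-well plates, five concentrations, linear interpolation of endpoints. Here, GI50 denotes the concentration required for 50% inhibition of growth. TGI: concentration producing complete growth inhibition.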
Key:
Experiment in all cases: inhibition of tumour cell growth, NCI panel, 48 h
COLO 205 colon = tested on: COLO 205 colon
HCC-2998 colon = tested on: HCC-2998 colon
HOP-92 NSCLC = tested on: HOP-92 NSCLC
NCI-H23 lung = tested on: NCI-H23 lung
OVCAR-3 ovarian = tested on: OVCAR-3 ovarian
OVCAR-8 ovarian = tested on: OVCAR-8 ovarian
RPMI-8226 leukemia = tested on: RPMI-8226 leukemia
SNB-19 CNS = tested on: SNB-19 CNS
SW-620 colon = tested on: SW-620 colon
786-0 renal = tested on: 786-0 renal
MDA-N = tested on: MDA-N

| SMILES | GI50 (COLO 205 colon) | TGI (COLO 205 colon) | GI50 (HCC-2998 colon) | TGI (HCC-2998 colon) | GI50 (HOP-92 NSCLC) | TGI (HOP-92 NSCLC) | GI50 (NCI-H23 lung) | TGI (NCI-H23 lung) | GI50 (OVCAR-3 ovarian) | TGI (OVCAR-3 ovarian) | GI50 (OVCAR-8 ovarian) | TGI (OVCAR-8 ovarian) | GI50 (RPMI-8226 leukemia) | TGI (RPMI-8226 leukemia) | GI50 (SNB-19 CNS) | TGI (SNB-19 CNS) | GI50 (SW-620 colon) | TGI (SW-620 colon) | TGI (786-0 renal) | TGI (MDA-N) |
| --- | --- | --- | --- | --- | --- | --- | --- | --- | --- | --- | --- | --- | --- | --- | --- | --- | --- | --- | --- | --- |
| O=C(N/N=C\c1ccc(N(CCCl)CCCl)cc1)c1cccnc1 | > 100 µM | > 100 µM | 55.5 µM | > 100 µM | 30.6 µM | > 100 µM | 15.8 µM | > 100 µM | 30.5 µM | > 100 µM | 39.8 µM | > 100 µM | 44.8 µM | > 100 µM | 45 µM | > 100 µM | > 100 µM | > 100 µM | – | – |
| CC(C)CC(C#CCCOC(=O)c1ccccc1)OC(=O)c1ccccc1 (centres undefined) | – | – | – | > 10 µM | – | > 10 µM | – | > 10 µM | – | > 10 µM | – | > 10 µM | – | – | – | > 10 µM | – | > 10 µM | > 10 µM | > 10 µM |
| COc1nc2c(c(=O)[nH]1)N=C(c1ccccc1)CC(c1ccccc1)N2 (centres undefined) | – | > 100 µM | – | > 100 µM | – | > 100 µM | – | > 100 µM | – | > 100 µM | – | > 100 µM | – | 75 µM | – | > 100 µM | – | > 100 µM | > 100 µM | – |
| C[n+]1c2ccccc2n2c3ccccc3c(NCc3ccco3)c(C#N)c21 | – | 19.9 µM | – | 3.36 µM | – | – | – | 8.92 µM | – | > 49.6 µM | – | – | – | – | – | 26.6 µM | – | 4.01 µM | 12.8 µM | 10.9 µM |
| COc1cc(/C=C2\C(=O)Nc3ccc(Cl)cc32)cc(OC)c1OC | 8.01 µM | > 100 µM | 5.82 µM | 61.2 µM | 3.39 µM | 22.9 µM | 12.9 µM | 39.2 µM | 19.6 µM | > 100 µM | 22.9 µM | > 100 µM | 3.9 µM | > 100 µM | 24.8 µM | > 100 µM | 29.9 µM | > 100 µM | – | – |
| O=c1c2ccccc2ncn1COCc1ccccc1 | – | > 100 µM | – | > 100 µM | – | > 100 µM | – | – | – | > 100 µM | – | > 100 µM | – | – | – | > 100 µM | – | > 100 µM | > 100 µM | – |
| CS(=O)(=O)c1ccc(C(=O)O[C@@H]2C(=O)N3CC[C@H]4OC(O)[C@@H]2[C@H]43)cc1 (some centres undefined) | – | > 100 µM | – | > 100 µM | – | – | – | > 100 µM | – | > 100 µM | – | > 100 µM | – | > 100 µM | – | > 100 µM | – | > 100 µM | > 100 µM | – |
| CCOC(=O)NC(=O)c1cn(CCN(CCO)C(=O)NCCCCCCNC(=O)N(CCO)CCn2cc(C(=O)NC(=O)OCC)c(=O)[nH]c2=O)c(=O)[nH]c1=O | – | > 100 µM | – | > 100 µM | – | > 100 µM | – | > 100 µM | – | > 100 µM | – | > 100 µM | – | > 100 µM | – | > 100 µM | – | > 100 µM | – | – |
| COc1c(O)cc2c(c1O)C(=O)C(Cc1ccc(O)cc1)CO2 (centres undefined) | – | > 100 µM | – | – | – | > 100 µM | – | > 100 µM | – | > 100 µM | – | > 100 µM | – | > 100 µM | – | > 100 µM | – | > 100 µM | > 100 µM | > 100 µM |
| COc1nc2ccc(Cl)c(C(O)c3ccccc3)c2nc1OC (centres undefined) | – | 32.5 µM | – | – | – | 60.6 µM | – | 61.2 µM | – | 69.6 µM | – | > 100 µM | – | 34.1 µM | – | > 100 µM | – | 82.7 µM | – | 54.8 µM |
| O=C([O-])c1ccccc1Nc1ccccc1C(=O)[O-].[OH3+].[Zn+2] | – | > 75.3 µM | – | > 100 µM | – | 45.7 µM | – | 28.9 µM | – | 32.9 µM | – | > 66.4 µM | – | > 100 µM | – | 30.7 µM | – | > 54.8 µM | 57.7 µM | – |
| COc1cc2c(c(OC)c1OC)-c1ccc(OC)c(=O)cc1C(NC(=O)CCCCCNc1ccc(N=[N+]=[N-])cc1[N+](=O)[O-])CC2 (centres undefined) | – | < 0.01 µM | – | – | – | – | – | > 100 µM | – | < 0.0152 µM | – | > 100 µM | – | < 0.01 µM | – | – | – | > 31.6 µM | – | < 0.01 µM |
| CSc1c(C(N)=S)c(N)nn1-c1ccccc1 | – | > 100 µM | – | > 100 µM | – | > 100 µM | – | > 100 µM | – | > 100 µM | – | > 100 µM | – | > 100 µM | – | > 100 µM | – | > 100 µM | > 100 µM | – |
| Cc1ccc(C(=O)C2C=C(c3ccc(C)cc3)SC3C=CCC32)cc1 (centres undefined) | – | 38 µM | – | – | – | 34 µM | – | 53 µM | – | 31.8 µM | – | 32.3 µM | – | 80.1 µM | – | > 100 µM | – | 29.8 µM | 38.3 µM | 32.3 µM |
| N/C(=C\c1ccc(/C=C(\NC(=O)c2ccccc2)c2nc3c([nH]2)C(=O)c2ccccc2C3=O)cc1)c1nc2c([nH]1)C(=O)c1ccccc1C2=O | – | 29.9 µM | – | – | – | 22.2 µM | – | 32.8 µM | – | 57.3 µM | – | 61.8 µM | – | 26.1 µM | – | 28.4 µM | – | 50.5 µM | – | – |
| CC12CP(=O)(O)CC1C2(Cl)Cl (centres undefined) | – | > 100 µM | – | > 100 µM | – | > 100 µM | – | > 100 µM | – | > 100 µM | – | > 100 µM | – | > 100 µM | – | > 100 µM | – | > 100 µM | > 100 µM | – |
| CC1(C)CC[C@]2(C)[C@@H](O)C[C@]3(C)C(=CC[C@@H]4[C@@]5(C)CC[C@H](O)C(C)(C)[C@@H]5CC[C@]43C)[C@@H]2C1 | – | > 100 µM | – | – | – | 42.3 µM | – | > 100 µM | – | > 100 µM | – | 74.3 µM | – | – | – | > 100 µM | – | > 100 µM | > 100 µM | > 100 µM |
| COC(=O)CC(C(C(=O)OCc1ccccc1)C(C)O)N1C(=O)OCC1c1ccccc1 (centres undefined) | – | > 100 µM | – | > 100 µM | – | – | – | > 100 µM | – | > 100 µM | – | > 100 µM | – | > 100 µM | – | > 100 µM | – | > 100 µM | > 100 µM | – |
| CN(CCO)CCC1COc2ccccc2O1 (centres undefined) | – | > 10 µM | – | > 10 µM | – | – | – | > 10 µM | – | > 10 µM | – | > 10 µM | – | > 10 µM | – | > 10 µM | – | > 10 µM | – | > 10 µM |
| Nc1nncc2n[nH]nc12 | – | > 100 µM | – | – | – | – | – | > 100 µM | – | > 100 µM | – | > 100 µM | – | > 100 µM | – | > 100 µM | – | > 100 µM | > 100 µM | > 100 µM |

Reference: PubChem BioAssay (NCI)
